Entries after “also recorded” stand apart in the source; their conditions may differ.
What was measured:
[1] = assay type: binding; settings: read-out: Kd (Me4CB[8]•guest)
[2] = test system: PCP-induced hyperlocomotion; test: In vivo reversal of PCP-induced hyperlocomotion (open field, locomotion counts); design: species or system mice; settings: listed as PCP

Structure (SMILES): CNC1(c2ccccc2Cl)CCCCC1=O (stereo not shown) [Ketamine 7, Ketamine]
- Kd [1]: 0.036 µM

Structure (SMILES): c1ccc(C2(N3CCCCC3)CCCCC2)cc1 [PCP 8, Phencyclidine]
- Kd [1]: 0.002 µM
- locomotion counts, PCP alone ([2]; experiment 1, male Swiss Webster mice n=8, PCP 2 mg/kg, 0.2 mL infusion, vs saline, Me4CB[8] alone, premix): increased locomotion significantly; also recorded: significant increase in locomotion counts
- locomotion counts, PCP alone ([2]; experiment 2, male Swiss Webster mice n=9, PCP 1.95 mg/kg, vs saline and sequential infusions): significantly increased locomotion counts; also recorded: significant increase in locomotion counts

Reference: patent US20210379099A1 (priority 2020, published 2021)
